Measured values: patent publication US9029325B2, “Amylin analogues and pharmaceutical compositions thereof” (Novo Nordisk A/S, priority 2011, dated 2015)
Starred links: 1 amine or outer side, 2 acyl side, 3 side chain; linkers in the order of their positions; H or OH if unused. Positions of bridges follow the written chain, without caps; N, C: chain ends. Non-standard residues stand in square brackets, D forms with d. Residues, ends and D or L forms follow the SMILES beside them. *: point of attachment. C20 diacid = O=C(O)CCCCCCCCCCCCCCCCCCC(=O)*; C18 diacid = O=C(O)CCCCCCCCCCCCCCCCC(=O)*; γGlu = O=C(O)[C@H](CCC(=O)[*:2])N[*:1]; Orn = NCCC[C@H](N)C(=O)O; AEEA = NCCOCCOCC(=O)O

Assay: Assay (I) efficacy testing on appetite (food intake), ad libitum fed rat model
Format: in vivo, Sprague Dawley (SD) rats
Settings: 3 nmol/kg
Excerpt: Sprague Dawley (SD) rats from Taconic Europe, Denmark are used for the experiments. The rats have a body weight 200-250 g at the start of experiment. The rats arrive at least 10-14 days before start of experiment to allow acclimatization to experimental settings. During this period the animals are handled at least 2 times. After arrival rats are housed individually for one week in a reversed light/dark phase (meaning that lights are off during daytime and on during nighttime) […]. Since rats are normally active and eat their major part of their daily food intake during the dark period, rats are dosed in the morning right before lights are turned off. This set-up results in the lowest data variation and highst test sensitivity. The experiment is conducted in the rats' home cages and rats have free access to food and water througout the acclimatization period and the experiment period. Each dose of derivative is tested in a group of 5-8 rats. A vehicle group of 6-8 rats is included in each set of testing. Rats are dosed once according to body weight with a 0.01-3 mg/kg solution administered intraperitoneally (ip), orally (po) or subcutaneously (sc). The time of dosing is recorded for each group. After dosing, the rats are returned to their home cages, where they then have access to food and water. The food consumption is recorded individually continuously by on-line registration or manually every hour for 7 hours, and then after 24 h and sometimes 48 h. At the end of the experimental session, the animals are euthanised.
The individual data are recorded in Microsoft excel sheets. Outliers are excluded after applying the Grubbs statistical evaluation test for outliers, and the result is presented graphically using the GraphPad Prism program.

Compound | Food intake reduction 0-24 h 3 nmol/kg (%) | Food intake reduction 24-48 h 3 nmol/kg (%)
CC[C@H](C)[C@H](NC(=O)[C@@H]1CCCN1C(=O)CNC(=O)[C@H](Cc1ccccc1)NC(=O)[C@H](CC(N)=O)NC(=O)[C@H](CC(N)=O)NC(=O)[C@H](CO)NC(=O)[C@H](CO)NC(=O)[C@H](Cc1c[nH]cn1)NC(=O)[C@H](Cc1c[nH]cn1)NC(=O)[C@H](CC(C)C)NC(=O)[C@H](Cc1ccccc1)NC(=O)[C@H](CCC(=O)O)NC(=O)[C@H](C)NC(=O)[C@H](CC(C)C)NC(=O)[C@H](CCCNC(=N)N)NC(=O)[C@H](CCC(N)=O)NC(=O)[C@@H](NC(=O)[C@H](C)NC(=O)[C@@H]1CSSC[C@H](NC(=O)[C@H](CCCCN)NC(=O)[C@H](CCC(=O)O)NC(=O)CC[C@H](NC(=O)CCCCCCCCCCCCCCCCC(=O)O)C(=O)O)C(=O)N[C@@H](CC(N)=O)C(=O)N[C@@H]([C@@H](C)O)C(=O)N[C@@H](C)C(=O)N[C@@H]([C@@H](C)O)C(=O)N1)[C@@H](C)O)C(=O)N[C@@H](CC(C)C)C(=O)N1CCC[C@H]1C(=O)N1CCC[C@H]1C(=O)N[C@H](C(=O)N[C@@H](CC(N)=O)C(=O)N[C@H](C(=O)NCC(=O)N[C@@H](CO)C(=O)N[C@@H](CC(N)=O)C(=O)N[C@H](C(=O)N[C@@H](Cc1ccc(O)cc1)C(N)=O)[C@@H](C)O)C(C)C)[C@@H](C)O [Example 42, N-alpha-[(S)-4-Carboxy-4-(17-carboxyheptadecanoylamino)butyryl]-Glu-[Glu14, His17]-pramlintide] ({C18 diacid-γGlu}-EKCNTATCATQRLAEFLHHSSNNFGPILPPTNVGSNTY-NH2; disulfide 3-8 (inferred); C-terminus assumed) | 45% | 5%
CC[C@H](C)[C@H](NC(=O)[C@@H]1CCCN1C(=O)CNC(=O)[C@H](Cc1ccccc1)NC(=O)[C@H](CC(N)=O)NC(=O)[C@H](CC(N)=O)NC(=O)[C@H](CO)NC(=O)[C@H](CO)NC(=O)[C@H](CCCNC(=N)N)NC(=O)[C@H](Cc1c[nH]cn1)NC(=O)[C@H](CC(C)C)NC(=O)[C@H](Cc1ccccc1)NC(=O)[C@H](CCC(=O)O)NC(=O)[C@H](C)NC(=O)[C@H](CC(C)C)NC(=O)[C@H](CCCNC(=N)N)NC(=O)[C@H](CCC(N)=O)NC(=O)[C@@H](NC(=O)[C@H](C)NC(=O)[C@@H]1CSSC[C@H](NC(=O)[C@H](CCCN)NC(=O)[C@@H](CCCNC(=N)N)NC(=O)[C@@H](CCCNC(=N)N)NC(=O)COCCOCCNC(=O)COCCOCCNC(=O)CC[C@H](NC(=O)CCCCCCCCCCCCCCCCC(=O)O)C(=O)O)C(=O)N[C@@H](CC(N)=O)C(=O)N[C@@H]([C@@H](C)O)C(=O)N[C@@H](C)C(=O)N[C@@H]([C@@H](C)O)C(=O)N1)[C@@H](C)O)C(=O)N[C@@H](CC(C)C)C(=O)N1CCC[C@H]1C(=O)N1CCC[C@H]1C(=O)N[C@H](C(=O)N[C@@H](CC(N)=O)C(=O)N[C@H](C(=O)NCC(=O)N[C@@H](CO)C(=O)N[C@@H](CC(N)=O)C(=O)N[C@H](C(=O)N[C@@H](Cc1ccc(O)cc1)C(N)=O)[C@@H](C)O)C(C)C)[C@@H](C)O [compound 120] ({C18 diacid-γGlu-AEEA-AEEA}-[dR][dR][Orn]CNTATCATQRLAEFLHRSSNNFGPILPPTNVGSNTY-NH2; disulfide 4-9 (inferred); C-terminus assumed) | 53% | 2%
CC[C@H](C)[C@H](NC(=O)[C@@H]1CCCN1C(=O)CNC(=O)[C@H](Cc1ccccc1)NC(=O)[C@H](CC(N)=O)NC(=O)[C@H](CC(N)=O)NC(=O)[C@H](CO)NC(=O)[C@H](CO)NC(=O)[C@H](Cc1c[nH]cn1)NC(=O)[C@H](Cc1c[nH]cn1)NC(=O)[C@H](CC(C)C)NC(=O)[C@H](Cc1ccccc1)NC(=O)[C@H](CCC(=O)O)NC(=O)[C@H](C)NC(=O)[C@H](CC(C)C)NC(=O)[C@H](CCCNC(=N)N)NC(=O)[C@H](CCC(N)=O)NC(=O)[C@@H](NC(=O)[C@H](C)NC(=O)[C@@H]1CSSC[C@H](NC(=O)[C@H](Cc2c[nH]cn2)NC(=O)[C@H](Cc2c[nH]cn2)NC(=O)CC[C@H](NC(=O)CCCCCCCCCCCCCCCCCCC(=O)O)C(=O)O)C(=O)N[C@@H](CC(N)=O)C(=O)N[C@@H]([C@@H](C)O)C(=O)N[C@@H](C)C(=O)N[C@@H]([C@@H](C)O)C(=O)N1)[C@@H](C)O)C(=O)N[C@@H](CC(C)C)C(=O)N1CCC[C@H]1C(=O)N1CCC[C@H]1C(=O)N[C@H](C(=O)N[C@@H](CC(N)=O)C(=O)N[C@H](C(=O)NCC(=O)N[C@@H](CO)C(=O)N[C@@H](CC(N)=O)C(=O)N[C@H](C(=O)N[C@@H](Cc1ccc(O)cc1)C(N)=O)[C@@H](C)O)C(C)C)[C@@H](C)O [compound 17] ({C20 diacid-γGlu}-HHCNTATCATQRLAEFLHHSSNNFGPILPPTNVGSNTY-NH2; disulfide 3-8 (inferred); C-terminus assumed) | 40% | 22%
CC[C@H](C)[C@H](NC(=O)[C@@H]1CCCN1C(=O)CNC(=O)[C@H](Cc1ccccc1)NC(=O)[C@H](CC(N)=O)NC(=O)[C@H](CC(N)=O)NC(=O)[C@H](CO)NC(=O)[C@H](CO)NC(=O)[C@H](CCCNC(=N)N)NC(=O)[C@H](Cc1c[nH]cn1)NC(=O)[C@H](CC(C)C)NC(=O)[C@H](Cc1ccccc1)NC(=O)[C@H](CCC(=O)O)NC(=O)[C@H](C)NC(=O)[C@H](CC(C)C)NC(=O)[C@H](CCCNC(=N)N)NC(=O)[C@H](CCC(N)=O)NC(=O)[C@@H](NC(=O)[C@H](C)NC(=O)[C@@H]1CSSC[C@H](NC(=O)[C@H](CCC(=O)O)NC(=O)CC[C@H](NC(=O)CCCCCCCCCCCCCCCCCCC(=O)O)C(=O)O)C(=O)N[C@@H](CC(N)=O)C(=O)N[C@@H]([C@@H](C)O)C(=O)N[C@@H](C)C(=O)N[C@@H]([C@@H](C)O)C(=O)N1)[C@@H](C)O)C(=O)N[C@@H](CC(C)C)C(=O)N1CCC[C@H]1C(=O)N1CCC[C@H]1C(=O)N[C@H](C(=O)N[C@@H](CC(N)=O)C(=O)N[C@H](C(=O)NCC(=O)N[C@@H](CO)C(=O)N[C@@H](CC(N)=O)C(=O)N[C@H](C(=O)N1CCC[C@H]1C(N)=O)[C@@H](C)O)C(C)C)[C@@H](C)O [Example 10, N-alpha-[(S)-4-Carboxy-4-(19-carboxynonadecanoylamino)butyryl]-[Glu1, Glu14, His17, Arg18, Pro37]-pramlintide] ({C20 diacid-γGlu}-ECNTATCATQRLAEFLHRSSNNFGPILPPTNVGSNTP-NH2; disulfide 2-7) | 50% | 40%
CC[C@H](C)[C@H](NC(=O)[C@@H]1CCCN1C(=O)CNC(=O)[C@H](Cc1ccccc1)NC(=O)[C@H](CC(N)=O)NC(=O)[C@H](CC(N)=O)NC(=O)[C@H](CO)NC(=O)[C@H](CO)NC(=O)[C@H](CCCNC(=N)N)NC(=O)[C@@H](NC(=O)[C@H](CC(C)C)NC(=O)[C@H](Cc1ccccc1)NC(=O)[C@H](CCC(=O)O)NC(=O)[C@H](C)NC(=O)[C@H](CC(C)C)NC(=O)[C@H](CCCNC(=N)N)NC(=O)[C@H](CCC(N)=O)NC(=O)[C@@H](NC(=O)[C@H](C)NC(=O)[C@@H]1CSSC[C@H](NC(=O)[C@H](Cc2c[nH]cn2)NC(=O)CC[C@H](NC(=O)CCCCCCCCCCCCCCCCCCC(=O)O)C(=O)O)C(=O)N[C@@H](CC(N)=O)C(=O)N[C@@H]([C@@H](C)O)C(=O)N[C@@H](C)C(=O)N[C@@H]([C@@H](C)O)C(=O)N1)[C@@H](C)O)C(C)C)C(=O)N[C@@H](CC(C)C)C(=O)N1CCC[C@H]1C(=O)N1CCC[C@H]1C(=O)N[C@H](C(=O)N[C@@H](CC(N)=O)C(=O)N[C@H](C(=O)NCC(=O)N[C@@H](CO)C(=O)N[C@@H](CC(N)=O)C(=O)N[C@H](C(=O)N[C@@H](Cc1ccc(O)cc1)C(N)=O)[C@@H](C)O)C(C)C)[C@@H](C)O [compound 15] ({C20 diacid-γGlu}-HCNTATCATQRLAEFLVRSSNNFGPILPPTNVGSNTY-NH2; disulfide 2-7 (inferred); C-terminus assumed) | 56% | 59%
CC[C@H](C)[C@H](NC(=O)[C@@H]1CCCN1C(=O)CNC(=O)[C@H](Cc1ccccc1)NC(=O)[C@H](CC(N)=O)NC(=O)[C@H](CC(N)=O)NC(=O)[C@H](CO)NC(=O)[C@H](CO)NC(=O)[C@H](Cc1c[nH]cn1)NC(=O)[C@H](Cc1c[nH]cn1)NC(=O)[C@H](CC(C)C)NC(=O)[C@H](Cc1ccccc1)NC(=O)[C@H](CCC(=O)O)NC(=O)[C@H](C)NC(=O)[C@H](CC(C)C)NC(=O)[C@H](CCCNC(=N)N)NC(=O)[C@H](CCC(N)=O)NC(=O)[C@@H](NC(=O)[C@H](C)NC(=O)[C@@H]1CSSC[C@H](NC(=O)[C@H](Cc2c[nH]cn2)NC(=O)CC[C@H](NC(=O)CCCCCCCCCCCCCCCCCCC(=O)O)C(=O)O)C(=O)N[C@@H](CC(N)=O)C(=O)N[C@@H]([C@@H](C)O)C(=O)N[C@@H](C)C(=O)N[C@@H]([C@@H](C)O)C(=O)N1)[C@@H](C)O)C(=O)N[C@@H](CC(C)C)C(=O)N1CCC[C@H]1C(=O)N1CCC[C@H]1C(=O)N[C@H](C(=O)N[C@@H](CC(N)=O)C(=O)N[C@H](C(=O)NCC(=O)N[C@@H](CO)C(=O)N[C@@H](CC(N)=O)C(=O)N[C@H](C(=O)N1CCC[C@H]1C(N)=O)[C@@H](C)O)C(C)C)[C@@H](C)O [Example 84, N-alpha-[(S)-4-Carboxy-4-(19-carboxynonadecanoylamino)butyryl]-[His1, Glu14, His17, Pro37]-pramlintide] ({C20 diacid-γGlu}-HCNTATCATQRLAEFLHHSSNNFGPILPPTNVGSNTP-NH2; disulfide 2-7) | 68% | 67%
